Results as given in patent US20130280252A1, “METHOD FOR SELECTING PATIENT TO BE GIVEN DRUG FOR TREATING SEPTICEMIA” (MOCHIDA PHARMACEUTICAL CO., LTD., priority 2011, published 2013).
Entries after “also recorded” stand apart in the source; their conditions may differ. Structures can show the parent of a compound that is named as a salt. Where two headings read alike, the source gives them in different places.

Key:
[1] = system: severe septic patients; settings: high-dosage group; mortality risk 20% to 80% by APACHE II Score; cited from earlier work
[2] = system: rabbit CLP model; experiment: Rabbit CLP model with E5564 (Example 3-1); format: in vivo; settings: 3 mg/kg to 10 mg/kg; 1 and 5 hours or 2 and 6 hours after surgery
Procedure: A rabbit CLP model is prepared as in Example 1. The E5564 administration timing is set to 1 hour and 5 hours after surgery or 2 hours and 6 hours after surgery and, as in Example 1, the sCD14-ST concentration in the blood at the time the therapeutic agent is administered is later checked with reference to the blood sCD14-ST concentration transition data. The dosage of E5564 is 3 mg/kg to 10 mg/kg. The body temperature and the leukocyte count of the rabbits are measured with time and used as indexes of the physiological conditions.

[3] = system: severe septic patients; experiment: Human clinical test of E5564 in severe septic patients; format: in vivo; settings: patients meeting at least three SIRS criteria and sCD14-ST equal to or greater than cut-off
Procedure: (§1) According to one example of the patient selection standards, E5564 is administered to a patient who meets at least three items of the SIRS diagnostic criteria to [4] and whose sCD14-ST concentration is equal to or greater than the cut-off value. Addition of the sCD14-ST concentration to the indexes used in setting the patient selection standards enables establishment of the patient selection standards that suit the action mechanism of E5564 and thus permits further improvement in E5564 efficacy than when the patient selection standards are set using only the physiological conditions as indexes.

[4] = system: severe septic patients; settings: severe sepsis with shock or respiratory failure, cited from earlier work
[5] = system: rabbit CLP model; experiment: Resatorvid-administered rabbit CLP model (Example 4); format: in vivo
Procedure: Two Resatorvid-administered groups were set with different administration timings. Ten mg/kg of Resatorvid was intravenously administered at timings of 1 hour and 5 hours after surgery to one group (hereinafter referred to as first-hour administered group) and 3 hours and 7 hours after surgery to the other group (hereinafter referred to as third-hour administered group). A group not to be administered Resatorvid (hereinafter referred to as control group) was administered a 10% aqueous solution of cyclodextrin, a Resatorvid solvent, 1 hour and 5 hours after surgery. Each of the groups consisted of 10 individuals; survival was checked until 48 hours after surgery. The platelet count and the leukocyte count were measured until 24 hours after surgery.

[6] = system: rabbit CLP model; experiment: Rabbit CLP model with Resatorvid (Example 2-1); format: in vivo; settings: 3 mg/kg to 10 mg/kg; 1 and 5 hours or 2 and 6 hours after surgery
Procedure: A rabbit CLP model is prepared as in Example 1. The Resatorvid administration timing is set to 1 hour and 5 hours after surgery or 2 hours and 6 hours after surgery and, as in Example 1, the blood sCD14-ST concentration at the time the therapeutic agent is administered is later checked with reference to the blood sCD14-ST concentration transition data. The dosage of Resatorvid is 3 mg/kg to 10 mg/kg. The body temperature and the leukocyte count of the rabbits are measured with time and used as indexes of the physiological conditions.

[7] = system: severe septic patients; experiment: Human clinical test of Resatorvid in severe septic patients; format: in vivo; settings: patients meeting at least three SIRS criteria and sCD14-ST equal to or greater than cut-off
Procedure: The specific standards used for selection of patients are as follows: Severe sepsis meets at least three items of the SIRS diagnostic criteria to [4], and the patient has or is suspected to have an infection requiring treatment with antibiotics. Septic shock needs a vasopressor to maintain a systolic blood pressure of at least 90 mmHg even under an appropriate body fluid management.
as §1, with “Resatorvid” for “E5564”, “enables” for “permits”

[8] = system: human vascular endothelial cell; settings: cited from earlier work
[9] = system: LPS-induced sepsis rabbit model; settings: cited from earlier work
[10] = system: cecal ligation and puncture-induced peritonitis rabbit model; settings: CLP-induced peritonitis rabbit model; cited from earlier work
[11] = system: cecal ligation and puncture-induced peritonitis rabbit model (rabbit CLP model); experiment: Rabbit CLP sepsis model, F1024S-D2(3) administered (Example 1); format: in vivo; settings: for Survival time: 10 mg/kg intravenously two hours after surgery
Procedure: A cecal ligation and puncture-induced peritonitis rabbit model (rabbit CLP model; CLP for cecal ligation and puncture) was used as the sepsis model to verify the improvement in efficacy of the therapeutic agent for sepsis when a patient to be administered the therapeutic agent for sepsis (F1024S-D2(3)) was selected using the sCD14-ST concentration as index. The rabbit CLP model was prepared using male rabbits, New Zealand white, each weighing 1.5 kg to 1.99 kg on arrival (Kitayama Labes Co., Ltd.), which had their cecum punctured under anesthesia at two places to make holes each measuring 2 cm to release the cecal contents into the peritoneal cavity according to the method described by Keith A et al (Journal of Surgical Research, Vol. 29, 189 (1980)). In order to stabilize the postsurgical state, all the operated individuals were intravenously administered 60 mg/kg of Shiomarin (Latamoxef Sodium for administration by injection, Shionogi & Co., Ltd.) two hours after surgery.
Blood was sampled at intervals before and after surgery to measure the sCD14-ST concentrations in the blood. The sCD14-ST concentrations in the blood were measured by the method described in Example 3 in WO2009/142303. In this model, the pathology progresses within several hours, resulting in death within 7 to 8 hours after surgery in the earliest cases. Because the measured values of the sCD14-ST concentration in the blood can only be known five to six hours after blood sampling, administering the therapeutic agent only after checking the results is belated. Therefore, the administration timing of the therapeutic agent was set to two hours after surgery, and the blood sCD14-ST concentration at the time when the therapeutic agent was administered was later checked with reference to blood sCD14-ST concentration transition data. Using the respective sCD14-ST concentrations in the blood before surgery of the individuals as normal values, twice the normal values were set as the respective cut-off values. Thus, the survival rates of the cases where the sCD14-ST concentrations in the blood were at least twice the normal values at the time of administration of the therapeutic agent were compared with that of the control cases (see Table 1). The therapeutic agent-administered cases were intravenously administered 10 mg/kg of F1024S-D2(3). The control cases were intravenously administered 10 mg/kg of human immunoglobulin (hIg) in lieu of F1024S-D2(3).
The transition of the sCD14-ST concentration in the blood reflects the severity of sepsis.

Molecule: CCCCCC/C=C\CCCCCCCCCC(=O)N[C@H]1[C@H](OC[C@H]2O[C@H](OP(=O)(O)O)[C@H](NC(=O)CC(=O)CCCCCCCCCCC)[C@@H](OCCCCCCCCCC)[C@@H]2O)O[C@H](COC)[C@@H](OP(=O)(O)O)[C@@H]1OCC[C@@H](CCCCCCC)OC [E5564, α-D-Glucopyranose, 3-O-decyl-2-deoxy-6-O-[2-deoxy-3-O-[(3R)-3-methoxydecyl]-6-O-methyl-2-[[(11Z)-1-oxo-11-octadecenyl]amino]-4-O-phosphono-β-D-glucopyranosyl]-2-[(1,3-dioxotetradecyl)amino]-1-(dihydrogen phosphate), tetrasodium salt]
- Mortality rate [1]: a tendency to reduce the mortality rate was observed in a high-dosage group, but it was of no statistic significance
- Efficacy when sCD14-ST concentration is used as index [2]: reveals improvement in the efficacy
- Efficacy when patient selection standards use sCD14-ST concentration as index [3]: improvement in E5564 efficacy can be observed

Molecule: CCOC(=O)C1=CCCC[C@H]1S(=O)(=O)Nc1ccc(F)cc1Cl [Resatorvid, ethyl (6R)-6-[N-(2-chloro-4-fluorophenyl)sulfonyl]cyclohex-1-ene-1-carboxylate]
- Mortality rate ([4]; high-dosage group): a tendency to reduce the mortality rate was observed among the high-dosage group, it was of no statistic significance; also recorded: a tendency to reduce the mortality rate was observed in the high-dosage group, it was of no statistic significance
- Serum IL-6 level [4]: failed to suppress the serum IL-6 level
- Recovery in leukocyte count, first-hour versus third-hour administered group ([5]; 10 mg/kg i.v.): observed more significantly in the first-hour administered group than in the third-hour administered group
- Survival rate versus control group ([5]; 10 mg/kg i.v. at 1 and 5 hours or 3 and 7 hours after surgery, checked until 48 hours): survival rates improved in the first-hour Resatorvid-administered group and the third-hour Resatorvid-administered group over the control group
- Platelet count ([5]; 12th hour after surgery, 10 mg/kg i.v.): showed a tendency to recover at the 12th hour after surgery, but failed to recover
- Leukocyte count versus control group ([5]; 24th hour after surgery, 10 mg/kg i.v.): showed recovery in leukocyte count as compared with the control group
- Survival rate, first-hour versus third-hour administered group ([5]; first 24 hours, 10 mg/kg i.v.): the first-hour administered group showed a higher survival rate than the third-hour administered group
- Efficacy when sCD14-ST concentration is used as index [6]: reveals improvement in the efficacy
- Efficacy when patient selection standards use sCD14-ST concentration as index [7]: improvement in Resatorvid efficacy can be observed

B1: F1024S-D2(3): modified form of an anti-CD14 antibody in which the domain 2 of urinary trypsin inhibitor (UTI) is bound to the anti-CD14 antibody; fusion protein (antibody)
heavy: QIQLVQSGPELKKPGESVKISCKASGYTFTDYAMNWVKQAPGNGLKWMGWINTQTGKPTYADDFKQRFVFSLETSASTAYLQINNLNIEDTATYFCTRSTFYYSSYIYGWYFDFWGPGTMVTVSSASTKGPSVFPLAPCSRSTSESTAALGCLVKDYFPEPVTVSWNSGALTSGVHTFPAVLQSSGLYSLSSVVTVPSSSLGTKTYTCNVDHKPSNTKVDKRVESKYGPPGPSGPAPEFLGGPSVFLFPPKPKDTLMISRTPEVTCVVVDVSQEDPEVQFNWYVDGVEVHNAKTKPREEQFNSTYRVVSVLTVLHQDWLNGKEYKCKVSNKGLPSSIEKTISKAKGQPREPQVYTLPPSQEEMTKNQVSLTCLVKGFYPSDIAVEWESNGQPENNYKTTPPVLDSDGSFFLYSRLTVDKSRWQEGNVFSCSVMHEALHNHYTQKSLSLSLGKGSTVAACNLPIVSGPCRAFIKLWAFDAVKGKCVLFPYGGCQGNGNKFDSEKECREYCGVPGDGDEELLRFSN
light: DIVMTQSPTSISISVGERVTMNCKASQNVGSNVDWYQQKTGQSPKLLIYKASNRYTGVPDRFTGSGSGTDFTFTISNMQAVDLAVYYCMQSNTNPPWTFGGGTKLELKRTVAAPSVFIFPPSDEQLKSGTASVVCLLNNFYPREAKVQWKVDNALQSGNSQESVTEQDSKDSTYSLSSTLTLSKADYEKHKVYACEVTHQGLSSPVTKSFNRGEC
- Production of IL-6 induced by LPS stimulation [8]: suppress production of IL-6
- Survival rate [9]: improve the survival rate of an LPS-induced sepsis rabbit model
- Survival rate [10]: improve the survival rate of a cecal ligation and puncture-induced peritonitis rabbit model
- Survival time ([11]; Severity Especially high): 7 h
- Survival time ([11]; Severity High): 23 h
- Survival time ([11]; Severity Medium): 47 h
- Effect on survival time versus control cases ([11]; especially high severity cases): no difference in survival time was observed
- Effect on survival time versus control cases ([11]; medium to high severity cases, administered when blood sCD14-ST at least twice the normal value): an effect of prolonging the survival time was observed
